{"source": "ChEMBL document CHEMBL5338752", "about": "“Carbamate JNK3 Inhibitors Show Promise as Effective Treatments for Alzheimer's Disease: In Vivo Studies on Mouse Models” (J Med Chem, 2023)", "key": {"[1]": {"target": "T1, Mitogen-activated protein kinase 9 (Homo sapiens, UniProt P45984)", "assay": "Inhibition of JNK2 (unknown origin) using ATF2 as substrate incubated for 40 mins in presence of [gamma33P]ATP by scintillation counting analysis"}, "[2]": {"tested_on": "Mus musculus", "assay": "Anti-alzheimer activity against APP/PS1 dE9 double transgenic mouse model assessed as time spent in platform quadrant at 60 mg/kg, po administered daily for 2 months and measured after 74 days by Morris water maze test (reference value: 10.50+/-4.15 sec)", "assay_type": "functional", "conditions": "time 74 day"}, "[3]": {"tested_on": "Mus musculus", "assay": "Anti-alzheimer activity against triple transgenic mouse alzheimer disease model assessed as time spent in platform quadrant at 30 mg/kg, po administered daily for 2.2 months and measured after 137 days by Morris water maze test (reference value: 12.26+/-2.34 sec)", "assay_type": "functional", "conditions": "time 137 day"}, "[4]": {"assay": "Effective permeability of compound by […] method", "assay_type": "ADME", "conditions": "read-out: Peff"}, "[5]": {"target": "Mitogen-activated protein kinase 14 (Homo sapiens) (UniProt Q16539)", "sequence (Q16539 whole entry)": "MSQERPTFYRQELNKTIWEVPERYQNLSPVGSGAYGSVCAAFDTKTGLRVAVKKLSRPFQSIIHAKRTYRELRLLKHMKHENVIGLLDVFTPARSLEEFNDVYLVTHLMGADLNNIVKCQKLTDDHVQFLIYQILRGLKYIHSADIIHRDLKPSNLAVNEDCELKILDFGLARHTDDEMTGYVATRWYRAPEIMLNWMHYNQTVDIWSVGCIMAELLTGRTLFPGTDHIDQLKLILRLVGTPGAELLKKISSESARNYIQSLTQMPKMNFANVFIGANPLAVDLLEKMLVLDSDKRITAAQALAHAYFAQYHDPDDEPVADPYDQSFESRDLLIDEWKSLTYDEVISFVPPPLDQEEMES", "assay": "Inhibition of p38alpha (unknown origin) at 1.0 uM preincubated for 20 mins followed by 33P-ATP addition and measured after 2 hrs by P81 filter binding method relative to control", "conditions": "time 140.0 min"}, "[6]": {"tested_on": "Mus musculus", "assay": "Anti-alzheimer activity against APP/PS1 dE9 double transgenic mouse model assessed as escape latency time at 30 mg/kg, po administered daily for 2 months and measured after 60 days by Passive avoidance test (reference value: 28.6+/-4.3 sec)", "assay_type": "functional", "conditions": "time 60 day"}, "[7]": {"target": "Mitogen-activated protein kinase 10 (Rattus norvegicus) (UniProt P49187)", "sequence (P49187 whole entry)": "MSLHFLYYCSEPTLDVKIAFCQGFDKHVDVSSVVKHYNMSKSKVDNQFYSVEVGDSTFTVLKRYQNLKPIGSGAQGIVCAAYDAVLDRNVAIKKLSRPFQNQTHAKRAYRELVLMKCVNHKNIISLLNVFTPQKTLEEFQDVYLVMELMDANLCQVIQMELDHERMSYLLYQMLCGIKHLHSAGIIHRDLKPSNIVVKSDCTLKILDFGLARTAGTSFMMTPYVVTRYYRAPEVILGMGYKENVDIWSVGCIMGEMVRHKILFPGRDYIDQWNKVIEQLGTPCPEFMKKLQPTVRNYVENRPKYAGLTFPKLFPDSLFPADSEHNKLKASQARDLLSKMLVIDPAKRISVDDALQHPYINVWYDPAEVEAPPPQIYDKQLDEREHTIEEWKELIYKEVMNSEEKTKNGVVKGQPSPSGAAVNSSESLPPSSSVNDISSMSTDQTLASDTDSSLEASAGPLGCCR", "assay": "Inhibition of anisomycin induced JNK3 activation in rat cortex neuron cells assessed as reduction in Jun phosphorylation levels at 10 to 20 uM preincubated for 90 mins followed by anisomycin addition and measured after 40 mins by Western blot analysis", "assay_type": "cell-based", "conditions": "dose 10-20 µM, time 130.0 min"}, "[8]": {"tested_on": "Mus musculus", "assay": "Anti-alzheimer activity against triple transgenic mouse alzheimer disease model assessed as time spent in platform quadrant at 60 mg/kg, po administered daily for 2.2 months and measured after 137 days by Morris water maze test (reference value: 12.26+/-2.34 sec)", "assay_type": "functional", "conditions": "time 137 day"}, "[9]": {"tested_on": "Mus musculus", "assay": "Anti-alzheimer activity against APP/PS1 dE9 double transgenic mouse model assessed as spontaneous alteration at 60 mg/kg, po administered daily for 2 months and measured after 57 days by Y-maze test (reference value: 40.75+/-2.25%)", "assay_type": "functional", "conditions": "time 57 day"}, "[10]": {"assay": "Apparent permeability of the compound across basolateral side to apical side in human Caco-2 cells", "assay_type": "ADME, cell-based"}, "[11]": {"assay": "Efflux ratio of apparent permeability across basolateral to apical side to apical to basolateral side in human Caco-2 cells", "assay_type": "ADME, cell-based"}, "[12]": {"target": "Mitogen-activated protein kinase 8 (Homo sapiens, UniProt P45983)", "sequence (P45983 whole entry)": "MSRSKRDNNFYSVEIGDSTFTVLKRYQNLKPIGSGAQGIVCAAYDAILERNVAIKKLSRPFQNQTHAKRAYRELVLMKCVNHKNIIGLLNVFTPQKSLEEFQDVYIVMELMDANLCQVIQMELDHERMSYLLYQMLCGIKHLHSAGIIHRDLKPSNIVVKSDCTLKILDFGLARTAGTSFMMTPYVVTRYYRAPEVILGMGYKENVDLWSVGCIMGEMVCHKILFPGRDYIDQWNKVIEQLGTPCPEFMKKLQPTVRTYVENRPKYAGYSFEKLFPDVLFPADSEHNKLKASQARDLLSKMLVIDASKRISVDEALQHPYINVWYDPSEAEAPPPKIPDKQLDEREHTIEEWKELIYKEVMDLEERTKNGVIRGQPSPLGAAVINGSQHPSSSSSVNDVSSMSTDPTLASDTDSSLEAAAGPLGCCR", "assay": "Inhibition of JNK1 (unknown origin) using ATF2 as substrate incubated for 40 mins in presence of [gamma33P]ATP by scintillation counting analysis"}, "[13]": {"target": "Mitogen-activated protein kinase 10 (Rattus norvegicus) (UniProt P49187)", "assay": "Inhibition of anisomycin induced JNK3 activation in rat cortex neuron cells assessed as inhibition of APP phosphorylation at 10 to 20 uM preincubated for 90 mins followed by anisomycin addition and measured after 40 mins by Western blot analysis", "assay_type": "cell-based", "conditions": "dose 10-20 µM"}, "[14]": {"tested_on": "Mus musculus", "assay": "Anti-alzheimer activity against triple transgenic mouse alzheimer disease model assessed as reduction in tau phosphorylation level at S202 residue in hippocampal tissue at 30 to 60 mg/kg by Western blot analysis", "assay_type": "functional, organism-based", "conditions": "dose 30-60 mg/kg"}, "[15]": {"tested_on": "Mus musculus", "assay": "Anti-alzheimer activity against triple transgenic mouse alzheimer disease model assessed as escape latency time at 60 mg/kg, po measured upto 5 days by Morris water maze test (reference value: 58.62+/-1.15 sec)", "assay_type": "functional", "conditions": "time <= 5 day"}, "[16]": {"tested_on": "Mus musculus", "assay": "Anti-alzheimer activity against APP/PS1 dE9 double transgenic mouse model assessed as time spent in platform quadrant at 30 mg/kg, po administered daily for 2 months and measured after 74 days by Morris water maze test (reference value: 10.50+/-4.15 sec)", "assay_type": "functional", "conditions": "time 74 day"}, "[17]": {"tested_on": "Neuron", "assay": "Inhibition of anisomycin induced JNK activation in rat cortex neuron cells assessed as fold reduction in Jun phosphorylation levels at 10 to 20 uM preincubated for 90 mins followed by anisomycin addition and measured after 40 mins by Western blot analysis", "assay_type": "cell-based", "conditions": "dose 10-20 µM, time 130.0 min"}, "[18]": {"tested_on": "Mus musculus", "assay": "Anti-alzheimer activity against triple transgenic mouse alzheimer disease model assessed as latency time at 60 mg/kg, po administered daily for 2.2 months and measured after 122 to 123 days by passive avoidance test (reference value: 31.3+/-6.9 sec)", "assay_type": "functional", "conditions": "time 122-123 day"}, "[19]": {"tested_on": "Mus musculus", "assay": "Anti-alzheimer activity against triple transgenic mouse alzheimer disease model assessed as path length at 60 mg/kg, po measured upto 5 days by Morris water maze test (reference value: 608.85+/-39.27 cm)", "assay_type": "functional", "conditions": "time <= 5 day"}, "[20]": {"target": "T2, Mitogen-activated protein kinase 10 (Homo sapiens, UniProt P53779)", "T2 sequence (P53779 whole entry)": "as the sequence (P49187 whole entry) above, with H27Q, S32Y, V33I, V34A counted along it", "assay": "Inhibition of JNK3 (unknown origin) using ATF2 as substrate incubated for 40 mins in presence of [gamma33P]ATP by scintillation counting analysis"}, "[21]": {"tested_on": "Mus musculus", "assay": "Anti-alzheimer activity against APP/PS1 dE9 double transgenic mouse model assessed as escape latency time at 60 mg/kg, po administered daily for 2 months and measured after 60 days by Passive avoidance test (reference value: 28.6+/-4.3 sec)", "assay_type": "functional", "conditions": "time 60 day"}, "[22]": {"tested_on": "Mus musculus", "assay": "Anti-alzheimer activity against APP/PS1 dE9 double transgenic mouse model assessed as time spent in target zone at 60 mg/kg, po administered daily for 2 months and measured after 74 days by Morris water maze test (reference value: 6.76+/-3.20 sec)", "assay_type": "functional", "conditions": "time 74 day"}, "[23]": {"assay": "Apparent permeability of the compound across apical side to basolateral side in human Caco-2 cells", "assay_type": "ADME, cell-based"}, "[24]": {"tested_on": "Mus musculus", "assay": "Anti-alzheimer activity against triple transgenic mouse alzheimer disease model assessed as spontaneous alteration at 30 mg/kg, po administered daily for 2.2 months and measured after 119 days by Y-maze test (reference value: 45.55+/-2.30%)", "assay_type": "functional", "conditions": "time 119 day"}, "[25]": {"tested_on": "Mus musculus", "assay": "Anti-alzheimer activity against APP/PS1 dE9 double transgenic mouse model assessed as time spent in target zone at 30 mg/kg, po administered daily for 2 months and measured after 74 days by Morris water maze test (reference value: 6.76+/-3.20 sec)", "assay_type": "functional", "conditions": "time 74 day"}, "[26]": {"target": "T1, Mitogen-activated protein kinase 9", "assay": "Inhibition of JNK2 (unknown origin) at 1.0 uM preincubated for 20 mins followed by 33P-ATP addition and measured after 2 hrs by P81 filter binding method relative to control", "conditions": "time 140.0 min"}, "[27]": {"tested_on": "Mus musculus", "assay": "Anti-alzheimer activity against triple transgenic mouse alzheimer disease model assessed as time spent in target zone at 30 mg/kg, po administered daily for 2.2 months and measured after 137 days by Morris water maze test (reference value: 4.48+/-1.63 sec)", "assay_type": "functional", "conditions": "time 137 day"}, "[28]": {"tested_on": "Mus musculus", "assay": "Anti-alzheimer activity against APP/PS1 dE9 double transgenic mouse model assessed as spontaneous alteration at 30 mg/kg, po administered daily for 2 months and measured after 57 days by Y-maze test (reference value: 40.75+/-2.25%)", "assay_type": "functional", "conditions": "time 57 day"}, "[29]": {"assay": "Tmax in sixteen hrs fasted Sprague-Dawley rat at 3 mg/kg, po measured upto 24 hrs by LC-MS/MS analysis", "assay_type": "ADME, organism-based", "conditions": "in vivo"}, "[30]": {"target": "T2, Mitogen-activated protein kinase 10", "assay": "Inhibition of JNK3 (unknown origin) at 1.0 uM preincubated for 20 mins followed by 33P-ATP addition and measured after 2 hrs by P81 filter binding method relative to control", "conditions": "time 140.0 min"}, "[31]": {"assay": "Half life in sixteen hrs fasted Sprague-Dawley rat at 3 mg/kg, po measured upto 24 hrs by LC-MS/MS analysis", "assay_type": "ADME, organism-based", "conditions": "in vivo"}}, "note": "Active and inactive are the calls of the source. The calls are words filed in the database; no cut-off is given here."}
{"smiles": "CNC(=O)Oc1cc(F)c2nc(-c3ccc4ccccc4c3)n(-c3ccnc(N[C@H]4CCCN(C(=O)C5CC5)C4)n3)c2c1", "values": [{"measurement": "IC50", "setting": "[1]", "result": 2.2, "unit": "µM"}, {"measurement": "Time", "setting": "[2]", "result": 21.78, "unit": "s"}, {"measurement": "Time", "setting": "[3]", "result": 23.4, "unit": "s"}, {"measurement": "Papp", "setting": "[4]", "result": 55.8, "unit": "×10⁻⁶ cm/s"}, {"measurement": "inhibition", "setting": "[5]", "result": 20, "unit": "%"}, {"measurement": "Time", "setting": "[6]", "result": 44.2, "unit": "s"}, {"measurement": "inhibition", "setting": "[7]", "result": "Active"}, {"measurement": "Time", "setting": "[8]", "result": 22.59, "unit": "s"}, {"measurement": "Activity", "setting": "[9]", "result": 54.23, "unit": "%"}, {"measurement": "Papp B→A", "setting": "[10]", "result": 25.2, "unit": "×10⁻⁶ cm/s"}, {"measurement": "efflux ratio", "setting": "[11]", "result": 14.7}, {"measurement": "IC50", "setting": "[12]", "result": "> 10", "unit": "µM"}, {"measurement": "inhibition", "setting": "[13]", "result": "Active"}, {"measurement": "Activity", "setting": "[14]", "result": "Active"}, {"measurement": "Time", "setting": "[15]", "result": 25.72, "unit": "s"}, {"measurement": "Time", "setting": "[16]", "result": 16.44, "unit": "s"}, {"measurement": "fold change (FC)", "setting": "[17]", "result": 2}, {"measurement": "Time", "setting": "[18]", "result": 64.4, "unit": "s"}, {"measurement": "Activity", "setting": "[19]", "result": 372.7, "unit": "cm"}, {"measurement": "IC50", "setting": "[20]", "result": 0.021, "unit": "µM"}, {"measurement": "Time", "setting": "[21]", "result": 46.5, "unit": "s"}, {"measurement": "Time", "setting": "[22]", "result": 16.27, "unit": "s"}, {"measurement": "Papp A→B", "setting": "[23]", "result": 1.7, "unit": "×10⁻⁶ cm/s"}, {"measurement": "Activity", "setting": "[24]", "result": 49.78, "unit": "%"}, {"measurement": "Time", "setting": "[25]", "result": 11.4, "unit": "s"}, {"measurement": "inhibition", "setting": "[26]", "result": 20, "unit": "%"}, {"measurement": "Time", "setting": "[27]", "result": 17.1, "unit": "s"}, {"measurement": "Activity", "setting": "[28]", "result": 50.6, "unit": "%"}, {"measurement": "Tmax", "setting": "[29]", "result": 23.4, "unit": "min"}, {"measurement": "inhibition", "setting": "[30]", "result": 100, "unit": "%"}, {"measurement": "half-life", "setting": "[31]", "result": 58.2, "unit": "min"}]}
